Measured values: ChEMBL document CHEMBL1201862, “PubChem BioAssay data set” (2004)
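Results reflect a 48-hour exposure of cells in 96-well plates to compound at five concentrations. The concentration for 50% growth inhibition is given as GI50.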 Calls of active or inactive are those of the source. No stated cut-off is given here; in the data, active = GI50 up to about 1.1 µM and inactive = higher.

How the values were obtained:
Assay in all cases: growth of human tumour cells (NCI), 48 h
EKVX = tested on: EKVX
HCC 2998 = tested on: HCC 2998
HCT-15 = tested on: HCT-15
HL-60 = tested on: HL-60
HOP-92 = tested on: HOP-92
M19-MEL = tested on: M19-MEL
Malme-3M = tested on: Malme-3M
OVCAR-4 = tested on: OVCAR-4
OVCAR-8 = tested on: OVCAR-8
RPMI-8226 = tested on: RPMI-8226
SF-295 = tested on: SF-295
SK-MEL-2 = tested on: SK-MEL-2
SK-OV-3 = tested on: SK-OV-3
SNB-75 = tested on: SNB-75
UACC-257 = tested on: UACC-257
NCI/ADR-RES = tested on: NCI/ADR-RES
Hs-578T = tested on: Hs-578T
MCF7 = tested on: MCF7
MDA-MB-231 = tested on: MDA-MB-231
MDA-N = tested on: MDA-N

Row | SMILES | GI50 (EKVX) | GI50 (HCC 2998) | GI50 (HCT-15) | GI50 (HL-60) | GI50 (HOP-92) | GI50 (M19-MEL) | GI50 (Malme-3M) | GI50 (OVCAR-4) | GI50 (OVCAR-8) | GI50 (RPMI-8226) | GI50 (SF-295) | GI50 (SK-MEL-2) | GI50 (SK-OV-3) | GI50 (SNB-75) | GI50 (UACC-257) | GI50 (NCI/ADR-RES) | GI50 (Hs-578T) | GI50 (MCF7) | GI50 (MDA-MB-231) | GI50 (MDA-N)
1 | Cc1[nH]c2ccccc2c1C1=NO/C(=N\O)C(c2c(C)[nH]c3ccccc23)C1 (centres undefined) | 27.3 µM (inactive) | 37.9 µM (inactive) | 43 µM | 20.5 µM (inactive) | 20.8 µM (inactive) | 41.3 µM (inactive) | 53.2 µM (inactive) | 39.1 µM (inactive) | 56.5 µM (inactive) | 34.5 µM (inactive) | 36.7 µM (inactive) | 40 µM (inactive) | 49.9 µM (inactive) | 43.2 µM (inactive) | 71.3 µM (inactive) |  |  |  |  | 
2 | COc1ccc(C(=O)C(C(=O)C(=O)Nc2ccc(Cl)c(Cl)c2)c2ccc(OC)cc2)cc1 (centres undefined) | > 100 µM (inactive) | > 100 µM (inactive) | > 100 µM | 78.5 µM (inactive) | > 100 µM (inactive) | > 100 µM (inactive) | > 100 µM (inactive) | > 100 µM (inactive) | > 100 µM (inactive) | > 100 µM (inactive) | > 100 µM (inactive) | > 100 µM (inactive) |  | 57.5 µM (inactive) | > 100 µM (inactive) |  |  |  |  | 
3 | COc1cc(C2(C)SCCCS2)c(I)c(OC)c1OC | > 100 µM (inactive) | > 100 µM (inactive) | > 100 µM | > 100 µM (inactive) | > 100 µM (inactive) | > 100 µM (inactive) | > 100 µM (inactive) | > 100 µM (inactive) | > 100 µM (inactive) | > 100 µM (inactive) | > 100 µM (inactive) | > 100 µM (inactive) | > 100 µM (inactive) | > 100 µM (inactive) | > 100 µM (inactive) |  |  |  |  | 
4 | OCn1nc2c(C3OCCO3)cc3ccccc3n2c1=S | > 100 µM (inactive) |  | > 100 µM | > 100 µM (inactive) | > 100 µM (inactive) | > 100 µM (inactive) | > 100 µM (inactive) | > 100 µM (inactive) | > 100 µM (inactive) | > 100 µM (inactive) | > 100 µM (inactive) | > 100 µM (inactive) | > 100 µM (inactive) | > 100 µM (inactive) | > 100 µM (inactive) |  |  |  |  | 
5 | CNC(=O)c1cccc2c(Nc3ccc(NS(C)(=O)=O)cc3OC)c3cccc(C)c3nc12 | 1.34 µM (inactive) | 0.568 µM (active) | 0.225 µM | 0.0131 µM (active) | 0.228 µM (active) | 0.585 µM (active) | 0.43 µM (active) | 1.9 µM (inactive) | 0.333 µM (active) | 0.0525 µM (active) | 0.0333 µM (active) | 1.64 µM (inactive) | 0.054 µM (active) | 0.122 µM (active) | 1.7 µM (inactive) | 2.26 µM (inactive) |  |  |  | 
6 | CCOc1cc2cnc3c4cc(OC)c(OC)cc4ccc3c2cc1OC | > 100 µM (inactive) | > 100 µM (inactive) | > 100 µM | 40.2 µM (inactive) | > 100 µM (inactive) | 39.8 µM (inactive) | 90.4 µM (inactive) | 86.7 µM (inactive) | 43.4 µM (inactive) | > 100 µM (inactive) | 26.4 µM (inactive) | 69 µM (inactive) | > 100 µM (inactive) | > 100 µM (inactive) | > 100 µM (inactive) |  |  |  |  | 
7 | COc1ccc(N2C(=O)/C(=C/c3ccc(N(CCC#N)CCC#N)cc3C)N=C2/C=C\c2ccccc2)cc1 |  |  | 5.69 µM | 92.7 µM (inactive) | > 100 µM (inactive) | 26.5 µM (inactive) | 41.6 µM (inactive) | 47 µM (inactive) | 42.7 µM (inactive) | 41.1 µM (inactive) | 35.5 µM (inactive) | > 100 µM (inactive) | 49.7 µM (inactive) | > 100 µM (inactive) | 99.1 µM (inactive) |  |  |  |  | 
8 | CP(C)C.[Ag][I] | > 100 µM (inactive) | > 100 µM (inactive) | > 100 µM | > 100 µM (inactive) | 40.2 µM (inactive) | > 100 µM (inactive) | 39.6 µM (inactive) | 18.2 µM (inactive) | 50 µM (inactive) | > 100 µM (inactive) | > 100 µM (inactive) | > 100 µM (inactive) | > 100 µM (inactive) | 20 µM (inactive) | > 100 µM (inactive) |  |  |  |  | 
9 | CCc1c(CNc2ccc(C(=O)NC(CC(=O)O)C(=O)O)cc2)ccc2nc(N)nc(N)c12 (centres undefined) | > 54.6 µM (inactive) | 0.0465 µM (active) | < 0.0164 µM | < 0.0316 µM (active) | 6.44 µM (inactive) | 0.133 µM (active) | 0.953 µM (active) | > 48.8 µM (inactive) | < 0.0184 µM (active) |  | 0.0371 µM (active) | > 100 µM (inactive) | > 20 µM (inactive) | 3.52 µM (inactive) | 5.19 µM (inactive) | 0.0288 µM (active) | > 1000 µM (inactive) | < 0.0182 µM (active) | > 100 µM (inactive) | < 0.01 µM (active)
10 | O=C(O)c1nccnc1C(=O)O | > 100 µM (inactive) | > 100 µM (inactive) | > 100 µM | > 100 µM (inactive) | > 100 µM (inactive) | > 100 µM (inactive) | > 100 µM (inactive) | > 100 µM (inactive) |  | > 100 µM (inactive) | > 100 µM (inactive) | > 100 µM (inactive) | > 100 µM (inactive) | > 100 µM (inactive) | > 100 µM (inactive) |  |  |  |  | 
11 | COc1ccc2[nH]cc(CCNC(C)=O)c2c1 [MELATONIN] | > 100 µM (inactive) |  | 77.4 µM | > 100 µM (inactive) | > 100 µM (inactive) | > 100 µM (inactive) | > 100 µM (inactive) | > 100 µM (inactive) | > 100 µM (inactive) | 22.1 µM (inactive) | > 100 µM (inactive) | > 100 µM (inactive) | > 100 µM (inactive) | > 100 µM (inactive) | > 100 µM (inactive) |  |  |  |  | 
12 | O=C1C2C3SC(c4cc5ccccc5cc43)C2C(=O)N1c1ccccc1 (centres undefined) | > 100 µM (inactive) | > 100 µM (inactive) | > 100 µM | > 100 µM (inactive) | 30.1 µM (inactive) | > 100 µM (inactive) | 70.3 µM (inactive) | 39.4 µM (inactive) | 90.6 µM (inactive) | > 100 µM (inactive) | > 100 µM (inactive) | 77.1 µM (inactive) | > 100 µM (inactive) | 19.8 µM (inactive) | > 100 µM (inactive) |  |  |  |  | 
13 | CC(C)=CCC/C(C)=C/CC/C(C)=C/Cc1c(O)c2ccccc2oc1=O | > 100 µM (inactive) | > 100 µM (inactive) | 69 µM | 99.1 µM (inactive) | > 100 µM (inactive) | > 100 µM (inactive) | > 100 µM (inactive) | > 100 µM (inactive) | > 100 µM (inactive) | 91.6 µM (inactive) | > 100 µM (inactive) | > 100 µM (inactive) | > 100 µM (inactive) | > 100 µM (inactive) | 99.8 µM (inactive) |  |  |  |  | 
